The values that follow come from US8507683B2, “Compounds for the treatment of hepatitis C” (Bristol-Myers Squibb Company, priority 2010, dated 2013).

Series [1] deals with HCV. Particulars: cited from earlier work.
Series [2] addresses HCV NS5B RdRp genotype 1b (Hepatitis C virus genotype 1b (isolate Con1) (HCV), UniProt Q9WMX2). Briefly: HCV NS5B RdRp enzyme assay. In kind it is biochemical. How it is done:
HCV NS5B RdRp Cloning, Expression, and Purification. The cDNA encoding the NS5B protein of HCV, genotype 1b, was cloned into the pET21a expression vector. The protein was expressed with an 18 amino acid C-terminal truncation to enhance the solubility. The E. coli competent cell line BL21(DE3) was used for expression of the protein. Cultures were grown at 37° C. for ˜4 hours until the cultures reached an optical density of 2.0 at 600 nm. The cultures were cooled to 20° C. and induced with 1 mM IPTG. Fresh ampicillin was added to a final concentration of 50 μg/mL and the cells were grown overnight at 20° C.
Cell pellets (3 L) were lysed for purification to yield 15-24 mgs of purified NS5B. The lysis buffer consisted of 20 mM Tris-HCl, pH 7.4, 500 mM NaCl, 0.5% triton X-100, 1 mM DTT, 1 mM EDTA, 20% glycerol, 0.5 mg/ml lysozyme, 10 mM MgCl2, 15 ug/ml deoxyribonuclease I, and Complete TM protease inhibitor tablets (Roche). After addition of the lysis buffer, frozen cell pellets were resuspended using a tissue homogenizer. To reduce the viscosity of the sample, aliquots of the lysate were sonicated on ice using a microtip attached to a Branson sonicator. The sonicated lysate was centrifuged at 100,000×g for 30 minutes at 4° C. and filtered through a 0.2 μm filter unit (Corning).
The protein was purified using two sequential chromatography steps: Heparin sepharose CL-6B and polyU sepharose 4B. The chromatography buffers were identical to the lysis buffer but contained no lysozyme, deoxyribonuclease I, MgCl2 or protease inhibitor and the NaCl concentration of the buffer was adjusted according to the requirements for charging the protein onto the column. Each column was eluted with a NaCl gradient which varied in length from 5-50 column volumes depending on the column type. After the final chromatography step, the resulting purity of the enzyme is >90% based on SDS-PAGE analysis. The enzyme was aliquoted and stored at −80° C.
Standard HCV NS5B RdRp Enzyme Assay. HCV RdRp genotype 1b assays were run in a final volume of 60 μl in 96 well plates (Costar 3912) . The assay buffer is composed of 20 mM Hepes, pH 7.5, 2.5 mM KCl, 2.5 mM MgCl2, 1 mM DTT, 1.6 U RNAse inhibitor (Promega N2515), 0.1 mg/ml BSA (Promega R3961), and 2% glycerol. All compounds were serially diluted (3-fold) in DMSO and diluted further in water such that the final concentration of DMSO in the assay was 2%. HCV RdRp genotype 1b enzyme was used at a final concentration of 28 nM. A polyA template was used at 6 nM, and a biotinylated oligo-dT12 primer was used at 180 nM final concentration. Template was obtained commercially (Amersham 27-4110). Biotinylated primer was prepared by Sigma Genosys. ^3H-UTP was used at 0.6 μCi (0.29 μM total UTP). Reactions were initiated by the addition of enzyme, incubated at 30° C. for 60 min, and stopped by adding 25 μL of 50 mM EDTA containing SPA beads (4 μg/μL, Amersham RPNQ 0007). Plates were read on a Packard Top Count NXT after >1 hr incubation at room temperature.
Modified HCV NS5B RdRp Enzyme Assay. An on-bead solid phase homogeneous assay was also used to assess NS5B inhibitors (WangY-K, Rigat K, Roberts S, and Gao M (2006) Anal Biochem, 359: 106-111). The assay is a modification of the standard assay described above and was used in a 96-well or a 384-well format. […]

Series [3] concerns genotype 1b HCV replicon in Huh-7 cells. Briefly: HCV replicon luciferase assay, genotype 1b. Type of series: cell-based. Particulars: Hepatitis C virus, 1b genotype replicon. How it is done: (§1) Cell Lines. The cell lines used to evaluate compounds consist of a human hepatocyte derived cell line (Huh-7) that constitutively expresses a genotype 1a or 1b HCV replicon containing a Renilla luciferase reporter gene. These cells were maintained in Dulbecco's modified Eagle medium (DMEM) containing 10% FBS, 100 U/mL penicillin/streptomycin and 1.0 mg/mL G418.
(§2) HCV Replicon Luciferase Assay. To evaluate compound efficacy, HCV replicon cells were seeded in 96-well plates in DMEM containing 10% FBS at a cell density of 10^4/well. Following incubation at 37° C. overnight, compounds serially diluted in DMSO were added to the cell plates. Alternatively, titrated compounds were transferred to sterile 384-well tissue-culture treated plates and the plates seeded with 50 μL of cells at a density of 2.4×10^3 cells/well in DMEM containing 4% FCS (final DMSO concentration at 0.5%). After 3 days incubation at 37° C., cells were analyzed for Renilla Luciferase activity using the EnduRen substrate (Promega cat #E6485) according to the manufacturer's directions. Briefly, the EnduRen substrate was diluted in DMEM and then added to the plates to a final concentration of 7.5 μM. The plates were incubated for at least 1 h at 37° C. then read on a TopCount NXT Microplate Scintillation and Luminescence Counter (Packard) or Viewlux Imager (PerkinElmer) using a luminescence program. The 50% effective concentration (EC50) was calculated using the exponential form of the median effect equation where EC50=100−[(δFinh/δFcon)×100].

Series [4] concerns genotype 1a HCV replicon in Huh-7 cells. Briefly: HCV replicon luciferase assay, genotype 1a. Type of series: cell-based. Particulars: Hepatitis C virus, 1a genotype used for replicon data. How it is done:
as §1
as §2, with “The 50% effective concentration (EC50) was calculated using the exponential form of the median effect equation where EC50=100−[(δFinh/δFcon)×100].” left out

Sequence of HCV NS5B RdRp genotype 1b (Q9WMX2 2420-2992): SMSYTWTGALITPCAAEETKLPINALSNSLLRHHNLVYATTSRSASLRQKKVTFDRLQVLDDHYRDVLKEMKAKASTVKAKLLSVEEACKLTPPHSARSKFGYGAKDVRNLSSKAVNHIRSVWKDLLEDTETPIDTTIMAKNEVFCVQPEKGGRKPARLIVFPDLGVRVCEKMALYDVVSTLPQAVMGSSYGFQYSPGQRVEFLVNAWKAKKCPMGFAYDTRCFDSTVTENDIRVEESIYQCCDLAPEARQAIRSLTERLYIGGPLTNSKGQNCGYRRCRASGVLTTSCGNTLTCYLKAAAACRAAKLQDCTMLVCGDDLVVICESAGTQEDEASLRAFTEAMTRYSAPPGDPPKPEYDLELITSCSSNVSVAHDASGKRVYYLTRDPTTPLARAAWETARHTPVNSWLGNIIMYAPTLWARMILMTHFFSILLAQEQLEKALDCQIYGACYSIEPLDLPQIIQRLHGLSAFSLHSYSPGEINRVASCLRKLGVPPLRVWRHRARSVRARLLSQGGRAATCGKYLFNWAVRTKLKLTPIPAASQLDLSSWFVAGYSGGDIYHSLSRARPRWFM

As for `CNC(=O)c1c(-c2ccc(F)cc2)oc2cc(N(CCO)S(C)(=O)=O)c(C3CC3)cc12` [HCV-796], the hepatic toxicity entry in series [1] (extended dosing of the combination regimens with interferon and ribavirin) was “hepatic toxicity observed”. Moreover, the “HCV RNA levels in patients” value in series [1] (patients, single agent) was “showed an ability to reduce HCV RNA levels in patients”.

On to `CNC(=O)c1c(-c2ccc(F)cc2)oc2ccc(-c3cc(C(=O)NC4(c5ccccn5)COC4)cc(F)c3C)c(F)c12` [4-fluoro-5-(3-fluoro-2-methyl-5-(3-(pyridin-2-yl)oxetan-3-ylcarbamoyl)phenyl)-2-(4-fluorophenyl)-N-methylbenzofuran-3-carboxamide], for which 16 nM corresponded to half-maximal inhibition in series [2] (IC50). A half-maximal effect in series [3] (EC50) was put at 6 nM.

In turn, `CNC(=O)c1c(-c2ccc(F)cc2)oc2ccc(-c3cc(C(=O)NC4(c5ncccn5)COC4)cc(F)c3C)c(F)c12` [4-fluoro-5-(3-fluoro-2-methyl-5-(3-(pyrimidin-2-yl)oxetan-3-ylcarbamoyl)phenyl)-2-(4-fluorophenyl)-N-methylbenzofuran-3-carboxamide] registered an IC50 in series [2] of 6 nM. In series [3], this compound showed an EC50 of 12 nM.

As for `CNC(=O)c1c(-c2ccc(F)cc2)oc2ccc(-c3cc(C(=O)NC4(c5ccccn5)COC4)ccc3C)c(F)c12` [4-fluoro-2-(4-fluorophenyl)-N-methyl-5-(2-methyl-5-(3-(pyridin-2-yl)oxetan-3-ylcarbamoyl)phenyl)benzofuran-3-carboxamide], half-maximal inhibition in series [2] (IC50) required 24 nM. Moreover, in series [4], the EC50 was 24 nM.

Turning to `CNC(=O)c1c(-c2ccc(F)cc2)oc2ccc(-c3cc(C(=O)NC4(c5ccccn5)COC4)c(OC)cc3C)c(F)c12`, in series [2], the IC50 was 17 nM. In series [3], the midpoint of the response, the EC50, lay at 8 nM.

Turning to `CNC(=O)c1c(-c2ccc(F)cc2)oc2ccc(-c3cc(C(=O)NC4(c5ccccc5)COC4)ccc3C)c(F)c12`, in series [2], the IC50 stood at 57 nM. In series [3], this compound gave an EC50 of 4 nM.

In the case of `CNC(=O)c1c(-c2ccc(F)cc2)oc2ccc(-c3cc(C(=O)NC4(c5ncccn5)COC4)ccc3C)c(F)c12` [4-fluoro-2-(4-fluorophenyl)-N-methyl-5-(2-methyl-5-(3-(pyrimidin-2-yl)oxetan-3-ylcarbamoyl)phenyl)benzofuran-3-carboxamide], the IC50 in series [2] stood at 10 nM. For the same compound, in series [3], the EC50 was found to be 15 nM.

In series [2], `CNC(=O)c1c(-c2ccc(F)cc2)oc2ccc(-c3cc(C(=O)NC4(c5ncccn5)COC4)c(OC)cc3C)c(F)c12` [4-fluoro-2-(4-fluorophenyl)-5-(4-methoxy-2-methyl-5-(3-(pyrimidin-2-yl)oxetan-3-ylcarbamoyl)phenyl)-N-methylbenzofuran-3-carboxamide] registered an IC50 of 22 nM. In series [3], this compound had an EC50 of 12 nM.
